# Experimental data published in patent EP3117212B1, “METHOD OF STUDYING ABCG2 PROTEIN ACTIVITY AND USE OF 2-AMINOETHYL DIPHENYLBORINATE” (Uniwersytet Lodzki, priority 2014, dated 2015).
# Substitutions are numbered along the chain they refer to.
# Experiments:
# Assay type in all cases: cell-based
# human ABCG2 protein = biological target: T1, human ABCG2 protein (Homo sapiens, UniProt Q9UNQ0); assay: Polyphenol accumulation in SB MDCKII-BCRP cells with/without Ko143, APB conjugate fluorescence (substrate verification); details: 20 µM compound; for transport substrate for the ABCG2 protein: 1 h, 37°C, with/without 10 µM Ko143, significantly higher fluorescence with Ko143; for transport capacity: relative difference between fluorescence values with/without 10 µM Ko143
# T1 construct: host or cells: MDCKII (SB MDCKII-BCRP cell line)
# T1 sequence (Q9UNQ0 1-655): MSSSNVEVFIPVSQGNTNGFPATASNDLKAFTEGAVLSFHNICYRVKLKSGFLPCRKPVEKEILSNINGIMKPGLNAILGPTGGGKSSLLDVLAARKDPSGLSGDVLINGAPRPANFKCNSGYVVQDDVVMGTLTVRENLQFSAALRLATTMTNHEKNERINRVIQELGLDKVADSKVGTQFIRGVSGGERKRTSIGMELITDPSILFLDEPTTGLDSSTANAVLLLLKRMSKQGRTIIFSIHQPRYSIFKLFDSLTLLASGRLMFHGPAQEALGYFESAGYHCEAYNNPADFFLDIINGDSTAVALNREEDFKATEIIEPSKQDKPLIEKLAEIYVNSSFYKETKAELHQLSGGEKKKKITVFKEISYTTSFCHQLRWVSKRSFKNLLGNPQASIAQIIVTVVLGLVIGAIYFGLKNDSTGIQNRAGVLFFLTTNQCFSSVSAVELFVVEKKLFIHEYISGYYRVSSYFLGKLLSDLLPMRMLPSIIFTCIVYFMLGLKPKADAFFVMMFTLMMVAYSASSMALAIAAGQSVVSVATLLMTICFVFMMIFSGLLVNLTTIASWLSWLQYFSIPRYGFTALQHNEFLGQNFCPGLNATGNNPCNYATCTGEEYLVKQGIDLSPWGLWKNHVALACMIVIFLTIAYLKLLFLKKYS
# Description: The results are shown on Fig. 1. […] The relative difference between the fluorescence values leads to the conclusion that transport capacity is the highest for compounds 9, 3 and 1 and the lowest for compounds 2 and 6.
# On Figure 1 fluorescence of the conjugates of APB and polyphenolic compounds is shown for the cell lysates (mean ± the standard error of the mean, n=5; statistically significant differences at the significance level <0.05 are marked with * symbol).
# ABCG2 K86M = biological target: T2, ABCG2 K86M (Homo sapiens, UniProt Q9UNQ0, K86M); assay: Luteolin transport in transfected HeLa cells with/without Ko143, APB conjugate fluorescence; details: K86M variant in HeLa cells; 10 µM luteolin, 0 or 10 µM Ko143, 1 h
# T2 construct: expressed in transfected cells; host or cells: HeLa, transient transfection (FuGene HD), pcDNA6.2/V5 vector
# T2 sequence (Q9UNQ0 1-655 K86M): T1 sequence (Q9UNQ0 1-655) with K86M
# Description: (§1) A plasmid expression vector for the ABCG2 protein was prepared using standard molecular biology techniques. The vector was obtained by cloning of a sequence encoding human ABCG2 and (as an N-terminal fusion protein within the same open reading frame) a sequence encoding TagGFP2 fluorescent protein (obtained from the pTagGFP2-C plasmid produced by Evrogen, cat. no. FP191) into the pcDNA6.2/V5 plasmid. Subsequently, a series of expression vectors for sequential variants of the ABCG2 protein were prepared by performing site-directed mutagenesis in the codons coding particular amino acids in this sequence. For this purpose the Quickchange Lightning kit for site-directed mutagenesis manufactered by AgilentStratagene (cat. no. 210513) was used, in full compliance with the manufacturer's instructions. In this way, the vectors encoding the following sequential variants of the ABCG2 protein were obtained (letters denote the standard IUPAC codes for amino acid residues changed with regard to the wild-type sequence, the number denotes the position of the amino acid residue in the polypeptide chain from the N-terminus of the protein): R482G,R482K, K86M.
# (§2) 72 hours before the experiment, the cells were chemically transfected with the above mentioned plasmids using the FuGene HD reagent (product from Promega, cat. no. E2311). The transfection mixture contained 150 µl of OptiMEM culture medium (product from Life Technologies, cat. no. 31985070), 3.3 µg of plasmid DNA and 9.9 µl of Fugene HD. The mixture was vortexed, incubated for 5 minutes and added to 2 ml of medium and the cells on the 6-well plate. 24 hours before the experiment, the cells were plated on a standard black 96-well polystyrene microplate with surface modified for cell culture (product from Thermo Scientific Nunc cat. no. 137101) with 50,000 cells per well in standard DMEM culture medium (product from LifeTechnologies cat. no. 32430) supplemented with 10% fetal bovine serum. […] The cells were then incubated for 1 h in a standard incubator for in vitro cell culture in temperature of 37°C. The incubation was followed by removing the medium and the cells were washed twice with portions of 50 µl of buffered saline (PBS, product from Life Technologies cat. no. 10010) in temperature of 4°C. Then the cells were lysed (solubilized) in 100 µl of PBS with the following additives: 0.5% (v/v) Triton X-100 surfactant (product from Sigma Aldrich, cat. no. T8787) and 0.25 mg/ml 2-aminoethyl-diphenylborinate (APB, CAS no. 208-366-5, product from Sigma Aldrich, cat. no. D9754). The compound APB was added to the PBS solution from a stock solution in DMSO with a concentration of 250 mg/ml permanently stored in temperature of -20°C. The cells were lysed by shaking the microplate in room temperature for 5 minutes.
# ABCG2 R482G = biological target: T3, ABCG2 R482G (Homo sapiens, UniProt Q9UNQ0, R482G); assay: as above; details: R482G variant in HeLa cells; 10 µM luteolin, 0 or 10 µM Ko143, 1 h
# T3 construct: expressed in transfected cells; host or cells: HeLa, transient transfection (FuGene HD), pcDNA6.2/V5 vector
# T3 sequence (Q9UNQ0 1-655 R482G): T1 sequence (Q9UNQ0 1-655) with R482G
# Description: as §1, §2
# ABCG2 R482K = biological target: T4, ABCG2 R482K (Homo sapiens, UniProt Q9UNQ0, R482K); assay: as above; details: R482K variant in HeLa cells; 10 µM luteolin, 0 or 10 µM Ko143, 1 h
# T4 construct: expressed in transfected cells; host or cells: HeLa, transient transfection (FuGene HD), pcDNA6.2/V5 vector
# T4 sequence (Q9UNQ0 1-655 R482K): T1 sequence (Q9UNQ0 1-655) with R482K
# Description: as §1, §2
# ABCG2 wild-type = biological target: T5, ABCG2 wild-type (Homo sapiens, UniProt Q9UNQ0); assay: as above; details: 10 µM luteolin, 0 or 10 µM Ko143, 1 h
# T5 construct: expressed in transfected cells; host or cells: HeLa, transient transfection (FuGene HD), pcDNA6.2/V5 vector
# T5 sequence (Q9UNQ0 1-655): T1 sequence (Q9UNQ0 1-655)
# Description: as §1, §2
Compound,transport substrate for the ABCG2 protein (human ABCG2 protein),transport capacity (human ABCG2 protein),transport activity towards luteolin (ABCG2 K86M),transport activity towards luteolin (ABCG2 R482G),transport activity towards luteolin (ABCG2 wild-type),transport activity towards luteolin (ABCG2 R482K)
"O=c1c(O)c(-c2ccc(O)c(O)c2)oc2cc(O)cc(O)c12 [Compound 1, quercetin]",ABCG2 protein substrates,highest,–,–,–,–
"O=c1c(O)c(-c2ccc(O)cc2)oc2cc(O)cc(O)c12 [Compound 2, kaempferol]",ABCG2 protein substrates,lowest,–,–,–,–
"O=c1cc(-c2ccc(O)c(O)c2)oc2cc(O)cc(O)c12 [Compound 3, luteolin]",ABCG2 protein substrates,highest,did not show any transport activity,"similar, maximum transport activity","similar, maximum transport activity",slightly decreased in relation to the wild-type

# Continued, in another order:
transport substrate for the ABCG2 protein (human ABCG2 protein),transport capacity (human ABCG2 protein),transport activity towards luteolin (ABCG2 K86M),transport activity towards luteolin (ABCG2 R482G),transport activity towards luteolin (ABCG2 wild-type),Compound,transport activity towards luteolin (ABCG2 R482K)
ABCG2 protein substrates,–,–,–,–,"O=c1c(O)c(-c2ccc(O)c(O)c2)oc2cc(O)ccc12 [Compound 4, fisetin]",–
ABCG2 protein substrates,lowest,–,–,–,"COc1ccc2oc(-c3ccc(OC)c(OC)c3)c(O)c(=O)c2c1 [Compound 6, 6,3',4'-trimethoxy-3-hydroxyflavone]",–
ABCG2 protein substrates,highest,–,–,–,"COc1ccc(OC)c(-c2oc3ccccc3c(=O)c2O)c1 [Compound 9, 2',5'-dimethoxy-3-hydroxyflavone]",–
